According to patent US20240002520A1, “TREATMENT OF CASTLEMAN DISEASE” (THE TRUSTEES OF THE UNIVERSITY OF PENNSYLVANIA, priority 2020, published 2024):

Columns and labels:
CXCL13 [1] = experiment: Serum proteomics (SomaLogic SOMAscan) during siltuximab therapy, phase II study; assay type: in vivo, human
Procedure: Methods. Clinical data and serum samples were collected as part of NCT01024036. We measured serum protein analytes in the 52 subjects who were treated with anti-IL6 therapy, as well as the 26 patients in the control arm, at day 1, day 8, and day 64 of therapy (infusions administered every 21 days). Serum samples from 44 healthy donors were also analyzed. Of the 1,305 analytes measured using SomaLogic SOMAscan, 1,178 passed QC and were included in analyses. Each analyte was log 2 transformed and capped at the 2.5th and 97.5th percentiles. Response to anti-IL6 therapy was determined by independent review in NCT01024036. Data processing was performed using the Medidata Rave Omics machine learning platform and R v3.4.4.
Linear mixed effects models were used to detect whether kinetic changes in protein expression were associated with anti-IL6 response. Upon running the full model with the selected covariates, the p-values of the interaction between time point and response were used to test for differences between responders and nonresponders.
A separate model was fitted using each protein, and False Discovery Rates (FDR) were estimated by the Benjamini-Hochberg method with alpha <0.05.

iMCD patients [2] = experiment: Siltuximab phase II study (NCT01024036): durable symptomatic and tumor response criteria; assay type: in vivo, human
From the text: Clinical and laboratory data were collected at the time of sample draw for iMCD patients. To assess disease activity, we adapted a previously published disease activity score using C-reactive protein, hemoglobin, and albumin.

iMCD patients [3] = conditions: cited from earlier work
CXCL13 [4] = experiment: Serum CXCL13 levels (absolute quantification, RBM) in validation cohort, siltuximab phase I study; assay type: in vivo, human
From the text: Samples collected in real-world practice were included to better represent the full spectrum of iMCD. We obtained samples from 60 patients with diseases that overlap in clinical and pathological presentation with iMCD, including HHV8-associated MCD (N=20), HL (N=20), and RA (N=20), which are caused by viral, neoplastic, and autoimmune mechanisms, respectively, and 44 healthy individuals. […] All serum samples from the phase I and the phase II studies were collected and processed following respective standardized protocols.
For the 23 samples in the validation cohort, Rules Based Medicine (RBM) DiscoveryMap v1.0 was used to measure 190 serum analytes by a microsphere-based, multiplexed immunoassay platform.^18 RBM values were converted to standardized units and log 2 transformed. Of 190 proteins measured by RBM, 154 can be mapped to targets in the Somalogic platform, and 140 remained for analysis after filtering out low-quality targets on both platforms.
A […] was generated to identify 17% as the optimal reduction in CXCL13 levels to maximize sensitivity and specificity of this indicator (FIGS. 7 & 14). Specifically, if a patient has a 17% or greater reduction in CXCL13 levels, then the patient is highly likely to respond (FIGS. 15-16, Table 4). The proteins from patients in the discovery cohort described supra were quantified using a relative quantification while the protein quantification in the validation described in Table 4 utilized absolute quantification.

iMCD = conditions: literature case reports; cited from earlier work
CD19+CD27-IgD+B cells = experiment: In vitro treatment of flow-sorted iMCD patient B cells, RNA sequencing and geneset enrichment analysis of Hallmark pathways; assay type: cell-based, human; conditions: serum plus rhCXCL13 compared to serum only
Procedure: An in vitro experiment was performed that included flow sorting CD19+CD27-IgD+B cells from peripheral blood mononuclear cells (PBMCs) derived from an iMCD patient and treating the CD19+CD27-IgD+B cells with either (A) serum only, (B) serum plus recombinant human CXCL13 (rhCXCL13) to assess the effects of CXCL13 on iMCD patient B cells, or (C) serum, rhCXCL13, and anti-CXCL13 (anti-CXCL13) antibody to assess the effects of this blocking antibody. Each of these samples had geneset enrichment analysis performed of the Hallmark pathways on RNA sequencing data.

[5] = Non-Responders (N = 13), Day 43

siltuximab
CXCL13 levels in non-responders (CXCL13 [1]; by day 64): remained elevated | CXCL13 levels in siltuximab responders (CXCL13 [1]; by day 64): decreased to levels approaching the healthy donor range | 9 serum proteins (IgA, BCMA, NPS-PLA2, ART, IL-18 BPa, CD5L, b2-Microglobulin, CXCL13, NRP1) in responders compared to non-responders (CXCL13 [1]; day 8, seven days after first siltuximab administration): significantly decreased | patients with lymph node response by Cheson criteria who also achieved durable symptomatic response (iMCD patients [2]): 18 of 20 | patients who met response criteria (iMCD patients [3]; Phase II study NCT01024036, assessed after a minimum of 48 weeks): one-third | iMCD patients who did not meet primary response criteria (iMCD patients [3]; siltuximab phase II registrational study): 66% | CXCL13, Median (IQR) (CXCL13 [4]; Non-Responders (N = 13), Day 22/29, baseline 155 (79, 293)): 249 (73.1, 466) pg/ml | CXCL13, Mean (SD) (CXCL13 [4]; Non-Responders (N = 13), Day 22/29, baseline 234 (240)): 337 (381) pg/ml | CXCL13, Mean (SD) (CXCL13 [4]; [5]): 229.1 (190.3) pg/ml | CXCL13, Median (IQR) (CXCL13 [4]; [5]): 218 (62, 371) pg/ml | CXCL13, Median (IQR) (CXCL13 [4]; Responders (N = 10), Day 22/29, baseline 116 (57, 258)): 41.1 (23.5, 62) pg/ml | CXCL13, Mean (SD) (CXCL13 [4]; Responders (N = 10), Day 22/29, baseline 241 (361)): 71.5 (94.5) pg/ml | CXCL13, Mean (SD) (CXCL13 [4]; Responders (N = 10), Day 43): 94.8 (70.6) pg/ml | CXCL13, Median (IQR) (CXCL13 [4]; Responders (N = 10), Day 43): 94.4 (29.6, 147) pg/ml

C=CC[C@@H]1/C=C(\C)C[C@H](C)C[C@H](OC)[C@H]2O[C@@](O)(C(=O)C(=O)N3CCCC[C@H]3C(=O)O[C@H](/C(C)=C/[C@@H]3CC[C@@H](O)[C@H](OC)C3)[C@H](C)[C@@H](O)CC1=O)[C@H](C)C[C@@H]2OC [tacrolimus]
reported activity in iMCD (iMCD): potential activity

B1: rhCXCL13: recombinant human CXCL13 (protein, UniProt O43927 23-109, looked up)
C-X-C motif chemokine 13: VLEVYYTSLRCRCVQESSVFIPRRFIDRIQILPRGNGCPRKEIIVWKKNKSIVCVDPQAEWIQRMMEVLRKRSSSTLPVPVFKRKIP
pathways previously found up-regulated in iMCD (IL6-JAK-STAT3, mTORC1, Interferon alpha response, interferon gamma response, complement, TNFα signaling via NFKb) (CD19+CD27-IgD+B cells): up-regulated
